Results as given in patent US20240317723A1, “SUBSTITUTED AMINO AZA-HETEROARYL COMPOUNDS AS INHIBITORS OF THE HAEMATOPOIETIC PROGENITOR KINASE 1 (HPK1)” (priority 2021, published 2024).

Columns and labels:
[1] = target: Lck (h) (Homo sapiens, UniProt P06239); assay: Lck Human STE Kinase Enzymatic Radiometric Assay; format: biochemical; conditions: for IC50: radiometric, [gamma-33P]-ATP, Cdc2 peptide substrate, read-out: Lck IC50, nM Range*; for Selectivity: selectivity for inhibition of HPK1 vs Lck
Sequence of Lck (h) (P06239 whole entry): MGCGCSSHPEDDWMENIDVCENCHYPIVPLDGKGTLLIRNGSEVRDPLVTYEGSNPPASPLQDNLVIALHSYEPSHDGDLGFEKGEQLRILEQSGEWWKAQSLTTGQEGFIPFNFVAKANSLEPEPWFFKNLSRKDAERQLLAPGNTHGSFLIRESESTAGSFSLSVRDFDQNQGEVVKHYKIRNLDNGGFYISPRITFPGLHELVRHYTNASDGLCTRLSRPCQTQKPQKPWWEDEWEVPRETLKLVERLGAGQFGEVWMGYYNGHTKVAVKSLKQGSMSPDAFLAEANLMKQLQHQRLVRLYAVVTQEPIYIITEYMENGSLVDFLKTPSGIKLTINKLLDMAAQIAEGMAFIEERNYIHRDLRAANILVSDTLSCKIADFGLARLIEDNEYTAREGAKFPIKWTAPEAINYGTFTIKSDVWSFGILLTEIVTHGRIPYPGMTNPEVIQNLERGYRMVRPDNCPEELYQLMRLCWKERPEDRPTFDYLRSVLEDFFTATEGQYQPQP
Description: (b) Lck Human STE Kinase Enzymatic Radiometric Assay
Lck (h) is incubated with 50 mM Tris pH 7.5, 0.1 mM EGTA, 0.1 mM Na3VO4, 250 uM KVEKIGEGTYGVVYK (Cdc2 peptide), 10 mM MgAcetate and [gamma-33P]-ATP (specific activity and concentration as required). The reaction is initiated by the addition of the Mg/ATP mix. After incubation for 40 minutes at room temperature, the reaction is stopped by the addition of phosphoric acid to a concentration of 0.5%. 10 uL of the reaction is then spotted onto a P30 filtermat and washed four times for 4 minutes in 0.425% phosphoric acid and once in methanol prior to drying and scintillation counting. For more details on the kinase assay procedures see: Gao, Y. et. al.; Biochem J., 451 (2): 313-328, 2013.
In some embodiments the presence of substituents on monocyclic Cy^2 rings or when Cy^2 is a bicyclic ring (unsubstituted or substituted) provides compounds with improved selectivity for inhibition of HPK1 vs Lck (see, for example, Table 3 and Table 4).

[2] = target: T1, Recombinant (1-346) HPK1 (h) (Homo sapiens, UniProt Q92918); assay: HPK1 Human STE Kinase Enzymatic Radiometric Assay; format: biochemical; conditions: [gamma-33P]-ATP, myelin basic protein substrate, read-out: HPK1 IC50 nM Range*
T1 construct: Recombinant (1-346) HPK1 (h) is incubated with 8 mM MOPS pH 7.0
T1 sequence (Q92918 1-346): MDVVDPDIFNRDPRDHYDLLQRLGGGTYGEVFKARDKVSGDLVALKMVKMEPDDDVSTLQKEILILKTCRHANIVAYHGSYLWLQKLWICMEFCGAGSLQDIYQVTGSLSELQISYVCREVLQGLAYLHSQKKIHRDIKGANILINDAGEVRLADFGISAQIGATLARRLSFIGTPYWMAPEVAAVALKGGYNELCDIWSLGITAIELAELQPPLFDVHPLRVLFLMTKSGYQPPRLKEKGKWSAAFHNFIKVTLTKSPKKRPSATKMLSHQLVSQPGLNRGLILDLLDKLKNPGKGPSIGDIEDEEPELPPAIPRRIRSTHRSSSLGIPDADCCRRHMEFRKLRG
Description: (a) HPK1 Human STE Kinase Enzymatic Radiometric Assay
A stock solution of 10 mM of test compound is prepared in DMSO. The compound plate was prepared by 3-fold and 9-point serial dilutions. Recombinant (1-346) HPK1 (h) is incubated with 8 mM MOPS pH 7.0, 0.2 mM EDTA, 0.33 mg/mL myelin basic protein, 10 mM MgAcetate and [gamma-33P]-ATP (specific activity and concentration as required). The reaction is initiated by the addition of the Mg/ATP mix. After incubation for 40 minutes at RT, the reaction is stopped by the addition of phosphoric acid to a concentration of 0.5%. 10 uL of the reaction is then spotted onto a P30 filtermat and washed four times for 4 minutes in 0.425% phosphoric acid and once in methanol prior to drying and scintillation counting. For more details of kinase assay protocols, see: Gao, Y. et. al.; Biochem J. 451 (2): 313-328, 2013.

Compound	IC50 [1] [nM]	IC50 [2] [nM]	Selectivity [1]
CC(C)[C@@H]1CN(c2ccc(-c3cnc(N)c(-c4ccc5c(c4)CCNC5=O)n3)c(F)c2)CCN1C [Example I-39, (R)-6-(3-amino-6-(2-fluoro-4-(3-isopropyl-4-methylpiperazin-1-yl)phenyl)pyrazin-2-yl)-3,4-dihydroisoquinolin-1(2H)-one]	11 to 20	0.1 to 5	–
C[C@@H]1COCCN1c1ccc(-c2cnc(N)c(-c3ccc4c(c3)CCNC4=O)n2)c(F)c1 [Example I-22, (R)-6-(3-amino-6-(2-fluoro-4-(3-methylmorpholino)phenyl)pyrazin-2-yl)-3,4-dihydroisoquinolin-1(2H)-one]	21 to 200	6 to 10	–
C[C@H]1CCCCN1c1ccc(-c2cnc(N)c(-c3ccc4c(c3)CCNC4=O)n2)c(F)c1 [Example I-18, (S)-6-(3-amino-6-(2-fluoro-4-(2-methylpiperidin-1-yl)phenyl)pyrazin-2-yl)-3,4-dihydroisoquinolin-1(2H)-one]	21 to 200	6 to 10	–
C[C@@H]1CCCN1c1ccc(-c2cnc(N)c(-c3ccc4c(c3)CCNC4=O)n2)cc1 [Example I-42, (R)-6-(3-amino-6-(4-(2-methylpyrrolidin-1-yl)phenyl)pyrazin-2-yl)-3,4-dihydroisoquinolin-1(2H)-one]	11 to 20	0.1 to 5	–
CN1C[C@@H]2C[C@H]1CN2c1ccc(-c2cnc(N)c(-c3ccc4c(c3)CCNC4=O)n2)cc1 [Example I-26, 6-(3-amino-6-(4-((1S,4S)-5-methyl-2,5-diazabicyclo[2.2.1]heptan-2-yl)phenyl)pyrazin-2-yl)-3,4-dihydroisoquinolin-1(2H)-one]	11 to 20	0.1 to 5	–
CC(C)[C@@H]1CN(c2ccc(-c3cnc(N)c(-c4ccc5c(c4)CCNC5=O)n3)c(F)c2)CCO1 [Example I-13, (R)-6-(3-amino-6-(2-fluoro-4-(2-isopropylmorpholino)phenyl)pyrazin-2-yl)-3,4-dihydroisoquinolin-1(2H)-one]	21 to 200	0.1 to 5	2740
CN1CCN(c2ccc(-c3cnc(N)c(-c4ccc5c(c4)CCNC5=O)n3)cc2)CC1 [Example I-1, 6-(3-amino-6-(4-(4-methylpiperazin-1-yl)phenyl)pyrazin-2-yl)-3,4-dihydroisoquinolin-1(2H)-one]	6 to 10	0.1 to 5	–
Cc1[nH]c(=O)c2c(F)cc(-c3nc(-c4ccc(C5CCOCC5)c(CN(C)C)c4)cnc3N)cc2c1F [II-5, 6-(3-amino-6-(3-((dimethylamino)methyl)-4-(tetrahydro-2H-pyran-4-yl)phenyl)pyrazin-2-yl)-4,8-difluoro-3-methylisoquinolin-1(2H)-one]	–	0.1 to 5	–
CC(C)[C@@H]1CN(c2ccc(-c3cnc(N)c(-c4cc5c(cc4F)C(=O)NCC5)n3)c(F)c2)CCO1 [Example I-29, (R)-6-(3-amino-6-(2-fluoro-4-(2-isopropylmorpholino)phenyl)pyrazin-2-yl)-7-fluoro-3,4-dihydroisoquinolin-1(2H)-one]	21 to 200	0.1 to 5	–
CC(=O)N1CCN(c2ccc(-c3cnc(N)c(-c4ccc5c(c4)CCNC5=O)n3)cc2)CC1 [Example I-19, 6-(6-(4-(4-acetylpiperazin-1-yl)phenyl)-3-aminopyrazin-2-yl)-3,4-dihydroisoquinolin-1(2H)-one]	11 to 20	0.1 to 5	–
Cc1cc2cc(-c3nc(-c4ccc(N5CCN(C)CC5)cc4)cnc3N)ccc2c(=O)[nH]1 [Example I-51, 6-(3-amino-6-(4-(4-methylpiperazin-1-yl)phenyl)pyrazin-2-yl)-3-methylisoquinolin-1(2H)-one]	–	0.1 to 5	–
CN1CCN(c2ccc(-c3cnc(N)c(-c4ccc5c(c4)CCNC5=O)n3)cc2)C=N1 [Example I-33, 6-(3-amino-6-(4-(1-methyl-5,6-dihydro-1,2,4-triazin-4(1H)-yl)phenyl)pyrazin-2-yl)-3,4-dihydroisoquinolin-1(2H)-one]	11 to 20	0.1 to 5	–
CN1CCN(c2ccc(-c3cnc(N)c(-c4cc(F)c5c(c4)CCNC5=O)n3)cc2)CC1 [Example I-5, 6-(3-amino-6-(4-(4-methylpiperazin-1-yl)phenyl)pyrazin-2-yl)-8-fluoro-3,4-dihydroisoquinolin-1(2H)-one]	6 to 10	0.1 to 5	–
Nc1ncc(-c2ccc(N3CCOCC3)c(F)c2F)nc1-c1ccc2c(c1)CCNC2=O [Comparator 2, 6-(3-amino-6-(2,3-difluoro-4-morpholinophenyl)pyrazin-2-yl)-3,4-dihydroisoquinolin-1(2H)-one, reference compound]	–	–	930
C[C@@H]1CN(C)CCN1c1ccc(-c2cnc(N)c(-c3ccc4c(c3)CCNC4=O)n2)cc1 [Example I-54, (R)-6-(3-amino-6-(4-(2,4-dimethylpiperazin-1-yl)phenyl)pyrazin-2-yl)-3,4-dihydroisoquinolin-1(2H)-one]	–	0.1 to 5	–
C[C@@H]1CN(c2ccc(-c3cnc(N)c(-c4ccc5c(c4)CCNC5=O)n3)cc2)C[C@H](C)N1C [Example I-55, 6-(3-amino-6-(4-((3R,5S)-3,4,5-trimethylpiperazin-1-yl)phenyl)pyrazin-2-yl)-3,4-dihydroisoquinolin-1(2H)-one]	–	0.1 to 5	–
Cc1c[nH]c(=O)c2cc(F)c(-c3nc(-c4ccc(C5CCOCC5)c(CN(C)C)c4)cnc3N)cc12 [II-2, 6-(3-amino-6-(3-((dimethylamino)methyl)-4-(tetrahydro-2H-pyran-4-yl)phenyl)pyrazin-2-yl)-7-fluoro-4-methylisoquinolin-1(2H)-one]	–	0.1 to 5	–
Cc1cc2cc(-c3nc(-c4ccc(C5CCOCC5)c(CN(C)C)c4)cnc3N)cc(F)c2c(=O)[nH]1 [II-4, 6-(3-amino-6-(3-((dimethylamino)methyl)-4-(tetrahydro-2H-pyran-4-yl)phenyl)pyrazin-2-yl)-8-fluoro-3-methylisoquinolin-1(2H)-one]	–	0.1 to 5	–
Cc1nc2cc(-c3nc(-c4ccc(N5CCN(C)CC5)cc4)cnc3N)ccc2c(=O)[nH]1 [Example I-57, 7-(3-amino-6-(4-(4-methylpiperazin-1-yl)phenyl)pyrazin-2-yl)-2-methylquinazolin-4(3H)-one]	–	6 to 10	–
Nc1ncc(-c2ccc(N3CCOCC3)cc2F)nc1-c1ccc2c(c1)CCNC2=O [Comparator 4, 6-(3-amino-6-(2-fluoro-4-morpholinophenyl)pyrazin-2-yl)-3,4-dihydroisoquinolin-1(2H)-one, reference compound]	–	–	405
CN1CCN(c2ccc(-c3cc(-c4ccc5c(c4)CCNC5=O)c(N)nn3)cc2)CC1 [Example I-49, 6-(3-amino-6-(4-(4-methylpiperazin-1-yl)phenyl)pyridazin-4-yl)-3,4-dihydroisoquinolin-1(2H)-one]	–	21 to 200	–
Nc1ncc(-c2ccc(N3CCOCC3)cc2)nc1-c1ccc2c(c1)CCNC2=O [Comparator 1, 6-(3-amino-6-(4-morpholinophenyl)pyrazin-2-yl)-3,4-dihydroisoquinolin-1(2H)-one, reference compound]	–	–	31
CC(C)N1CCN(c2ccc(-c3cnc(N)c(-c4ccc5c(c4)CCNC5=O)n3)cc2)[C@H](C)C1 [Example I-53, (R)-6-(3-amino-6-(4-(4-isopropyl-2-methylpiperazin-1-yl)phenyl)pyrazin-2-yl)-3,4-dihydroisoquinolin-1(2H)-one]	–	0.1 to 5	–
CN(C)Cc1cc(C2CCOCC2)ccc1-c1cnc(N)c(-c2cc3c(cc2F)C(=O)NCC3)n1 [II-1, 6-(3-amino-6-(2-((dimethylamino)methyl)-4-(tetrahydro-2H-pyran-4-yl)phenyl)pyrazin-2-yl)-7-fluoro-3,4-dihydroisoquinolin-1(2H)-one]	–	6 to 10	–
CCN1CCN(c2ccc(-c3cnc(N)c(-c4ccc5c(c4)CCNC5=O)n3)cc2)CC1 [Example I-56, 6-(3-amino-6-(4-(4-ethylpiperazin-1-yl)phenyl)pyrazin-2-yl)-3,4-dihydroisoquinolin-1(2H)_-one]	–	0.1 to 5	–
